# Laboratory results from the Kinase Knowledgebase extract (Sharma et al. 2016).
# Biological target: PIK3CA (human) (UniProt P42336)
# Assay: Cell-Based Assay
# Details: bt20
# PIK3CA (human), sequence (P42336 whole entry, looked up): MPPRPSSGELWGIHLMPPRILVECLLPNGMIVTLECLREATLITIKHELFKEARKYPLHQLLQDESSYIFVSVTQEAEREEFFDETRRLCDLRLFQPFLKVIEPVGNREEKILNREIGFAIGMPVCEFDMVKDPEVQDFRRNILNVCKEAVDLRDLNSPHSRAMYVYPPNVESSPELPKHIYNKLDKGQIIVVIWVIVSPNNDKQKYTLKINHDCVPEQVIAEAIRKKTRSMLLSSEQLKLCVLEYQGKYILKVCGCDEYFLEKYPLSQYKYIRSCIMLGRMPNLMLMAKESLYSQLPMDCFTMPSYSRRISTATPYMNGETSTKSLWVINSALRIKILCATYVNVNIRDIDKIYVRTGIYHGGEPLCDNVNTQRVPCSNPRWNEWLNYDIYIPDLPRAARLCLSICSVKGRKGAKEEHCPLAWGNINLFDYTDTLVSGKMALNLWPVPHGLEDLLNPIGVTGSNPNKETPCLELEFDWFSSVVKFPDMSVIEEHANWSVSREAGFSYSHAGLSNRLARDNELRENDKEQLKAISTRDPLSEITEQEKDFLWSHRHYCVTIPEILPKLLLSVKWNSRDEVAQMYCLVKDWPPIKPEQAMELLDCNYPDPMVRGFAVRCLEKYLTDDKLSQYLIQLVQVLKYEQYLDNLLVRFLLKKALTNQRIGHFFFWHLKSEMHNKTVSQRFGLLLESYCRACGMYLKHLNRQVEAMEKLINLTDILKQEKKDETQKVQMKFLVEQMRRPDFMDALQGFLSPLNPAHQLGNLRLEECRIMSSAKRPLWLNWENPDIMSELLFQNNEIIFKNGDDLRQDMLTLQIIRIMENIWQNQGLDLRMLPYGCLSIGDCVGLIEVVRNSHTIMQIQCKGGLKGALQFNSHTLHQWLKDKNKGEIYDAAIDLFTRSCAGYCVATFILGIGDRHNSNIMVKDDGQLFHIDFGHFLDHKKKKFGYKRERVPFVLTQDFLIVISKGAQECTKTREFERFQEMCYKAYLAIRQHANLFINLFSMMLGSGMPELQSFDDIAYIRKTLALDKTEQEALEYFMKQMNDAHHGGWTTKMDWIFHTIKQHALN
row,Compound,IC50 [µM]
1,Cn1c(=O)n(C2CCN(C(=O)CO)CC2)c2c3nc(-c4cccc5[nH]ncc45)ccc3ncc21,0.0604
2,Cn1c(=O)n(C2CCN(C(=O)CO)CC2)c2c3nc(-c4cnc5[nH]ncc5c4)ccc3ncc21,0.0594
3,CC(C)C(=O)N1CCC(n2c(=O)n(C)c3cnc4ccc(-c5cnc6ccccc6c5)nc4c32)CC1,0.0294
4,COc1ncc(-c2ccc3ncc4c(c3n2)n(C2CCN(C(=O)[C@H](C)O)CC2)c(=O)n4C)cn1,0.0342
5,COc1ccc(-c2ccc3ncc4c(c3n2)n(C2CCN(C(=O)[C@H](C)O)CC2)c(=O)n4C)cc1,0.014
6,Cc1ccc(-c2ccc3ncc4c(c3n2)n(C2CCN(c3ncccn3)CC2)c(=O)n4C)cn1,0.0414
7,C[C@@H](O)C(=O)N1CCC(n2c(=O)n(C)c3cnc4ccc(-c5ccc(N(C)C)nc5)nc4c32)CC1,0.00553
8,COc1cccc(-c2ccc3ncc4c(c3n2)n(C2CCN(C(C)=O)CC2)c(=O)n4C)c1,0.0577
9,COc1ncc(-c2ccc3ncc4c(c3n2)n(C2CCOCC2)c(=O)n4C)cn1,0.0989
10,Cn1cc(-c2ccc3ncc4c(c3n2)n([C@H]2CC[C@H](C(N)=O)CC2)c(=O)n4C)cn1,0.224
11,CC(=O)N1CCC(n2c(=O)n(C)c3cnc4ccc(-c5ccc(N(C)C)nc5)nc4c32)CC1,0.0172
12,Cc1ccc(-c2ccc3ncc4c(c3n2)n(-c2ccc(C(C)(C)C#N)cc2)c(=O)n4C)cn1,0.0244
13,COc1cccc(-c2ccc3ncc4c(c3n2)n(C2CCN(C(=O)[C@H](C)O)CC2)c(=O)n4C)c1,0.0344
14,CN(C)c1ccc(-c2ccc3ncc4[nH]c(=O)n(-c5ccc(C(C)(C)C#N)cc5)c4c3n2)cn1,0.0676
15,CN(C)c1ccc(-c2ccc3ncc4c(c3n2)n(C2CCN(CCO)CC2)c(=O)n4C)cn1,0.0325
16,Cn1c(=O)n(C2CCOCC2)c2c3nc(-c4cnn(CCO)c4)ccc3ncc21,0.579
17,Cn1cc(-c2ccc3ncc4c(c3n2)n([C@H]2CC[C@H](O)CC2)c(=O)n4C)cn1,0.107
18,CCC(=O)N1CCC(n2c(=O)n(C)c3cnc4ccc(-c5cnc6ccccc6c5)nc4c32)CC1,0.00786
19,Cn1cc(-c2ccc3ncc4c(c3n2)n(C2CCOCC2)c(=O)n4C)cn1,0.0718
20,Cn1c(=O)n([C@H]2CC[C@H](O)CC2)c2c3nc(-c4cccc5[nH]ccc45)ccc3ncc21,0.00961
21,Cn1c(=O)n([C@H]2CC[C@H](O)CC2)c2c3nc(-c4cnc(N)nc4)ccc3ncc21,0.00336
22,CCNC(=O)Nc1ccc(-c2ccc3ncc4c(c3n2)n(C2CCN(C(=O)OC(C)(C)C)CC2)c(=O)n4C)cc1,0.0399
23,CN(C)c1ccc(-c2ccc3ncc4c(c3n2)n(C2CCOCC2)c(=O)n4C)cn1,0.029

row,Compound,IC50 [µM]
1,CNC(=O)N1CCC(n2c(=O)n(C)c3cnc4ccc(-c5cnc6ccccc6c5)nc4c32)CC1,0.00734
2,COc1ncc(-c2ccc3ncc4c(c3n2)n(C2CCN(C)CC2)c(=O)n4C)cn1,0.159
3,CN(C)C(=O)CN1CCC(n2c(=O)n(C)c3cnc4ccc(-c5cnn(C)c5)nc4c32)CC1,0.248
4,Cn1cc(-c2ccc3ncc4c(c3n2)n(-c2ccc(C(C)(C)C#N)cc2)c(=O)n4C)cn1,0.116
5,CNC(=O)N1CCC(n2c(=O)n(C)c3cnc4ccc(-c5ccc(C)nc5)nc4c32)CC1,0.0594
6,COc1ccc(-c2ccc3ncc4c(c3n2)n(CCN2CCNCC2)c(=O)n4C)cn1,0.344
7,COc1ccc(-c2ccc3ncc4c(c3n2)n(C2CCN(C(=O)CN(C)C)CC2)c(=O)n4C)cn1,0.0144
8,COc1ncc(-c2ccc3ncc4c(c3n2)n([C@H]2CC[C@H](OCCO)CC2)c(=O)n4C)cn1,0.0263
9,COc1ncc(-c2ccc3ncc4c(c3n2)n(-c2ccc(C(C)(C)C#N)cc2)c(=O)n4C)cc1F,0.0907
10,COc1ncc(-c2ccc3ncc4c(c3n2)n(C2CCNCC2)c(=O)n4C)cn1,0.333
11,Cn1c(=O)n(C2CCN(CC(F)(F)F)CC2)c2c3nc(-c4cnc5ccccc5c4)ccc3ncc21,0.0148
12,CC(C)(C#N)c1ccc(-n2c(=O)[nH]c3cnc4ccc(-c5cnc6ccccc6c5)nc4c32)cc1,0.00647
13,CN(C)c1ccc(-c2ccc3ncc4c(c3n2)n(C2CCNCC2)c(=O)n4C)cn1,0.0246
14,CCNC(=O)N1CCC(n2c(=O)n(C)c3cnc4ccc(-c5cnc6ccccc6c5)nc4c32)CC1,0.017
15,N[C@H]1CC[C@H](n2c(=O)[nH]c3cnc4ccc(-c5cnc6ccccc6c5)nc4c32)CC1,0.402
16,CN(C)c1ccc(-c2ccc3ncc4c(c3n2)n(C2CCN(C(N)=O)CC2)c(=O)n4C)cn1,0.0358
17,COc1ccc(-c2ccc3ncc4c(c3n2)n([C@H](C)CO)c(=O)n4C)cn1,0.237
18,CN(C)c1ccc(-c2ccc3ncc4c(c3n2)n(-c2ccc(C(C)(C)C#N)cc2)c(=O)n4C)cn1,0.0309
19,CC(=O)N1CCC(n2c(=O)n(C)c3cnc4ccc(-c5cnc6ccccc6c5)nc4c32)CC1,0.00459
20,COc1ncc(-c2ccc3ncc4c(c3n2)n(C2CCN(CC(=O)N(C)C)CC2)c(=O)n4C)cn1,0.037
21,CN(C)CC(=O)N1CCC(n2c(=O)n(C)c3cnc4ccc(-c5ccc(N(C)C)nc5)nc4c32)CC1,0.0153
22,CN(C)c1ccc(-c2ccc3ncc4c(c3n2)n(C2CCN(C(=O)CO)CC2)c(=O)n4C)cn1,0.00623
23,C[C@H](O)C(=O)N1CCC(n2c(=O)n(C)c3cnc4ccc(-c5ccnc6[nH]ncc56)nc4c32)CC1,0.218

row,Compound,IC50 [µM]
1,Cn1c(=O)n(C2CCNCC2)c2c3nc(-c4cnc(N)nc4)ccc3ncc21,0.137
2,COc1ccc(-c2ccc3ncc4c(c3n2)n(C2CCN(C(C)C)CC2)c(=O)n4C)cn1,0.0551
3,COc1ncc(-c2ccc3ncc4c(c3n2)n(C2CCN(C(=O)CN(C)C)CC2)c(=O)n4C)cn1,0.175
4,CCOC(=O)N1CCC(n2c(=O)n(C)c3cnc4ccc(-c5cnc6ccccc6c5)nc4c32)CC1,0.0204
5,COCCN1CCC(n2c(=O)n(C)c3cnc4ccc(-c5ccc(N(C)C)nc5)nc4c32)CC1,0.0318
6,COc1ncc(-c2ccc3ncc4c(c3n2)n(C2CCN(C(=O)CO)CC2)c(=O)n4C)cn1,0.0272
7,CN[C@H]1CC[C@H](n2c(=O)n(C)c3cnc4ccc(-c5cnc6ccccc6c5)nc4c32)CC1,0.404
8,CCN1CCC(n2c(=O)n(C)c3cnc4ccc(-c5cnc6ccccc6c5)nc4c32)CC1,0.0117
9,COc1ccc(-c2ccc3ncc4[nH]c(=O)n(Cc5ccccc5)c4c3n2)cn1,0.0245
10,COc1ccc(-c2ccc3ncc4[nH]c(=O)n([C@H]5CC[C@H](O)CC5)c4c3n2)cn1,0.0468
11,Cn1c(=O)n([C@H]2CC[C@H](OCCO)CC2)c2c3nc(-c4cnc5ccccc5c4)ccc3ncc21,0.0107
12,Cc1ccc(-c2ccc3ncc4c(c3n2)n([C@H]2CC[C@H](O)CC2)c(=O)n4C)cn1,0.0185
13,COc1ccc(-c2ccc3ncc4c(c3n2)n([C@@H](C)CO)c(=O)n4C)cn1,0.266
14,Cn1cc(-c2ccc3ncc4[nH]c(=O)n(-c5ccc(C(C)(C)C#N)cc5)c4c3n2)cn1,0.0973
15,COc1ncc(-c2ccc3ncc4c(c3n2)n(C2CCN(C(=O)CN)CC2)c(=O)n4C)cn1,0.184
16,Cn1cc(-c2ccc3ncc4c(c3n2)n(C2CCN(CC(N)=O)CC2)c(=O)n4C)cn1,0.232
17,Cn1cc(-c2ccc3ncc4c(c3n2)n(C2CCN(C(=O)C(C)(C)O)CC2)c(=O)n4C)cn1,0.0304
18,COCCn1c(=O)n(C)c2cnc3ccc(-c4ccc(OC)nc4)nc3c21,0.207
19,CC(=O)N1CCC(n2c(=O)n(C)c3cnc4ccc(-c5ccnc6[nH]ncc56)nc4c32)CC1,0.14
20,Cn1c(=O)n([C@H]2CC[C@H](O)CC2)c2c3nc(-c4cn[nH]c4)ccc3ncc21,0.0197
21,Cn1c(=O)n(C2CCOCC2)c2c3nc(-c4cnc(N)nc4)ccc3ncc21,0.00694
22,Cn1c(=O)n([C@H]2CC[C@H](O)CC2)c2c3nc(-c4cc[nH]n4)ccc3ncc21,0.264
23,CN1CCC(n2c(=O)n(C)c3cnc4ccc(-c5cnc6[nH]ncc6c5)nc4c32)CC1,0.0218

row,Compound,IC50 [µM]
1,Cn1c(=O)n(C2CCN(C(=O)C(C)(C)O)CC2)c2c3nc(-c4cnc5ccccc5c4)ccc3ncc21,0.028
2,CN(C)c1ccc(-c2ccc3ncc4c(c3n2)n(C2CCN(C(=O)C(C)(C)C)CC2)c(=O)n4C)cn1,0.0214
3,Cc1ccc(-c2ccc3ncc4c(c3n2)n(C2CCOCC2)c(=O)n4CCO)cn1,0.428
4,COc1ccc(-c2ccc3ncc4c(c3n2)n(C2CCN(CC(N)=O)CC2)c(=O)n4C)cn1,0.00714
5,O=C(OCc1ccccc1)N1CCC(n2c(=O)[nH]c3cnc4ccc(-c5cnc6ccccc6c5)nc4c32)CC1,0.0322
6,COc1ncc(-c2ccc3ncc4c(c3n2)n(C2CCN(CC(N)=O)CC2)c(=O)n4C)cn1,0.0903
7,CC(=O)N1CCC(n2c(=O)n(C)c3cnc4ccc(-c5cnn(C)c5)nc4c32)CC1,0.133
8,COc1ncc(-c2ccc3ncc4c(c3n2)n(C2CCN(CCO)CC2)c(=O)n4C)cn1,0.124
9,Cn1c(=O)n([C@H]2CC[C@H](O)CC2)c2c3nc(-c4cnn(CCO)c4)ccc3ncc21,0.448
10,CNC(=O)N1CCC(n2c(=O)n(C)c3cnc4ccc(-c5ccc(OC)nc5)nc4c32)CC1,0.00919
11,CN(C)c1ccc(-c2ccc3ncc4c(c3n2)n([C@H]2CC[C@H](OCCO)CC2)c(=O)n4C)cn1,0.0116
12,Cc1ccc(-c2ccc3ncc4c(c3n2)n(C2CCN(C)CC2)c(=O)n4C)cn1,0.0228
13,COc1ncc(-c2ccc3ncc4c(c3n2)n(-c2ccc(C(C)(C)C#N)cc2)c(=O)n4C)cn1,0.0272
14,CN(C)CC(=O)N1CCC(n2c(=O)n(C)c3cnc4ccc(-c5cnc6ccccc6c5)nc4c32)CC1,0.018
15,Cc1ccc(-c2ccc3ncc4c(c3n2)n(C2CCOCC2)c(=O)n4C)cn1,0.0273
16,Cc1ccc(-c2ccc3ncc4c(c3n2)n([C@H]2CC[C@H](OCCO)CC2)c(=O)n4C)cn1,0.00863
17,Cc1ccc(-c2ccc3ncc4c(c3n2)n(C2CCN(CCO)CC2)c(=O)n4C)cn1,0.0356
18,CNC(=O)N1CCC(n2c(=O)n(C)c3cnc4ccc(-c5cnc(OC)nc5)nc4c32)CC1,0.0681
19,COc1ccc(-c2ccc3ncc4c(c3n2)n(C2CCOCC2)c(=O)n4C)cn1,0.0185
20,COc1ccc(-c2ccc3ncc4c(c3n2)n(C2CCN(C(C)=O)CC2)c(=O)n4C)cc1,0.0113
21,Cn1c(=O)n(-c2ccc(C(C)(C)C#N)cc2)c2c3nc(-c4cnc5ccccc5c4)ccc3ncc21,0.00354
22,COc1ncc(-c2ccc3ncc4c(c3n2)n(C2CCN(C(C)=O)CC2)c(=O)n4C)cn1,0.0346
